# Details: buffer; pH 7.4; 200.0 µM
row,solubility kinetic [µg/mL],Structure (SMILES)
1,> 54.8,COc1ccccc1N1CCN(CC(O)c2c(C)[nH]c3ccccc23)CC1 (stereo not given)
2,> 42.8,Cc1nc2ccccc2n1CC(=O)NC1CCCCCC1
3,45.1,OC(CN1CCCCC1)Cn1c2ccccc2c2ccccc21 (stereo not given)
4,12.9,COc1ccccc1C(=O)CN1C(=O)NC2(CCCCCC2)C1=O
5,6.5,Cc1onc(-c2ccccc2)c1C(=O)NCc1ccccc1F
6,46.3,O=C(O)c1[nH]c2ccccc2c1C=NCc1ccccc1Cl
7,7.9,CC(C)[C@H](NC(=O)c1ccc(C(C)(C)C)cc1)C(=O)N1CCN(Cc2ccc3c(c2)OCO3)CC1
8,47.3,O=C(CN1CCN(Cc2ccccc2)CC1)NCCc1ccccc1
9,1.4,CCN(Cc1ccccc1)Cc1nc(CCc2ccccc2)no1
10,38.8,CC(=O)c1c(-c2ccccc2)c2cc(Cl)ccc2n(C)c1=O
11,> 38.1,Cc1cc(C(=O)NC2CCCC2)c2ccccc2n1
12,> 46.7,CCOc1ccc(C(=O)N2CCN(c3ccccn3)CC2)cc1
13,0.7,COc1ccccc1NC(=S)NC(=O)CCc1ccccc1
14,1.9,COc1cc2ccccc2cc1C(=O)N1CCc2ccccc21
15,< 0.7,Cc1ccc(Cn2ccc(O)c(Cc3ccccc3)c2=O)cc1
16,> 49.7,COc1ccccc1CNC(=O)COC(=O)Cc1cccc(F)c1
17,5.7,S=c1[nH]c2cnccc2n1Cc1ccccc1
18,0.6,Cc1ccc(NC(=O)c2cc(CC(C)C)nc3ccccc23)cc1
19,> 49.3,COc1ccccc1C(=O)OC(C)CN1CCN(C)CC1.Cl (stereo not given)
20,48.2,O=C(Nc1ccc(C(=O)N2CCCC2)cc1)c1ccccc1[N+](=O)[O-]
21,> 50.2,CCOc1ccccc1C(=O)NCC(=O)OCC(=O)N1CCCC1
22,17.3,Cc1cc[n+](-c2ccccc2)c2ccccc12.[Cl-]
23,23.9,O=c1[nH]c(CN2CCOCC2)nc2scc(-c3ccccc3)c12
24,1.6,COc1ccccc1NC(=O)c1ccc(-c2ccccc2[N+](=O)[O-])o1
25,> 44.6,CCOc1ccc(S(=O)(=O)N2CN3CCN(C3)C2)cc1
26,1.5,O=C(CSc1ccc2ccccc2n1)c1ccccc1

# The remaining lines, values behind:
row,Structure (SMILES),solubility kinetic [µg/mL]
1,Brc1cccc(C2Nc3cccc4cccc(c34)N2)c1,< 0.3
2,Cl.Fc1ccccc1Nc1nc(Cl)nc(Cl)n1,> 44.3
3,O=C(Nc1cccc([N+](=O)[O-])c1)C1CC(=O)N(C2CCCCC2)C1 (stereo not given),48.5
4,COc1ccccc1N(C)S(=O)(=O)c1ccc(C(=O)Nc2cc(F)ccc2C)cc1,7.5
5,O=C(/C=C/c1ccc(S(=O)(=O)N2CCOCC2)cc1)Nc1cc(F)ccc1F,5.5
6,O=[N+]([O-])c1ccc(S(=O)(=O)c2cccc(C(F)(F)F)c2)nc1,4.4
7,CCOc1cccc(CNCc2ccncc2)c1,27.4
8,COc1ccc(CNc2cc(NCCCO)c([N+](=O)[O-])c3nonc23)cc1,45.7
9,O=C(NCCCN1CCOCC1)C(=O)NCc1ccc(Cl)cc1,> 51
10,O=C(Nc1cccc([N+](=O)[O-])c1)C1C2/C=C\CCCCC21 (stereo not given),< 0.3
11,CC(C)OCCCNC(=O)C1CCN(S(=O)(=O)N2CCCC2)CC1,> 54.2
12,CN1C(=O)N(c2ccc(Cl)cc2)C(C)(O)CC1(C)C (stereo not given),> 42.4
13,CCOCCCNC(=O)/C(C#N)=C/c1ccc(C(=O)OC)cc1,19.1
14,Cc1ccc(NC(=S)Nc2ccc3[nH]c(=O)[nH]c3c2)cc1,44
15,O=C(CNC(=O)c1ccco1)Nc1ccc(Cl)cc1,24.1
16,COC(=O)c1sccc1NC(=S)Nc1cccc(F)c1,34.4
17,N#CC1=C(N)N(c2ccc(Cl)c(Cl)c2)C(=O)C1,> 40.2

row,Structure (SMILES),solubility kinetic [µg/mL]
1,OC1CCC(Nc2ncnc3sccc23)CC1 (stereo not given),> 37.4
2,COc1ccc2[nH]c(C(=O)NCc3ccc4c(c3)OCO4)cc2c1,1.1
3,COc1cc(/C=C/C(=O)OCC(=O)NCc2ccc(F)cc2)ccc1O,> 53.9
4,Cc1cc(C(=O)Nc2cc(C(C)(C)C)on2)c(C)o1,3.8
5,CC(C)(O)CNC(=O)Nc1ccc(Cl)c(Cl)c1,24.6
6,C/C(=N\O)C(C)(C)Nc1ccc(Cl)cc1,32.1
7,Fc1ccc(NC(=S)NCCN2CCOCC2)c(F)c1F,> 47.9
8,CCOc1ccc(S(=O)(=O)Nc2ccc(C(=O)NCC(c3ccc(OC)cc3)N3CCOCC3)cc2)cc1 (stereo not given),37.9
9,O=C(CSc1nccn1-c1cccc(Cl)c1)NO,> 42.6
10,CCOC(=O)c1cnc2cc(F)c(F)cc2c1N1CCOCC1,39.4
11,O=C(Nc1nc2cc3c(cc2s1)OCO3)c1ccc(N2C(=O)CCC2=O)cc1,1.1
12,O=C(Nc1ccon1)Nc1ccc(F)cc1F,> 35.9
13,O=C(COc1ccc(Cl)cc1Cl)NCC1(N2CCOCC2)CCCCC1,1.9
14,Cc1cccc(N=C2CSC(=O)N2)c1,> 30.9
15,CC1CCCCC1NC(=O)Cn1cnc2c1c(=O)n(C)c(=O)n2C (stereo not given),> 50
16,COc1ccc(NC(=O)/C=C/c2ccc(OC(F)F)cc2)cn1,2
17,CC1CN(c2ccc([N+](=O)[O-])cn2)CC(C)O1 (stereo not given),> 35.6

# Source: PubChem BioAssay AID1996
